# Reference: patent publication US10219516B2, “Molecules having pesticidal utility, and intermediates, compositions, and processes, related thereto” (priority 2015, dated 2019)
# Where two headings read alike, the source gives them in different places.
# Tests used:
# [1] = tested on: Beet Armyworm (Spodoptera exigua, LAPHEG); experiment: Bioassay on Beet Armyworm (BAW), 128-well diet tray assay; assay type: in vivo
# How it was run: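 Diet tray, 8 wells/compound; 50 μg/cm^2 applied to diet surface (90:10 acetone-water), dried. 1–5 L2 larvae/well; 25° C., 14:10 L:D, 5–7 d. Read-out: % mortality, mean of 8 wells.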
# [2] = tested on: Cabbage Looper (Trichoplusia ni, TRIPNI); experiment: Bioassay on Cabbage Looper (CL), 128-well diet tray assay; assay type: in vivo; details: Trichoplusia ni
# How it was run: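 Percent mortality, averaged across eight replicate wells, was scored after five to seven days at 25° C. under a 14:10 light-dark cycle. Each well held one to five second instar larvae on artificial diet treated at 50 μg/cm^2 with compound from 90:10 acetone-water, allowed to dry before infestation.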
# [3] = Species BAW (Beet Armyworm), read-out: BAW (Biological Results, rating)
# [4] = Species CL (Cabbage Looper), read-out: CL (Biological Results, rating)
# [5] = Beet Armyworm, 128-well diet tray assay, read-out: BAW rating
# [6] = Cabbage Looper, 128-well diet tray assay, read-out: CL rating
SMILES,"pest or weed control at 50 µg/cm2 [1, 3] [%]","pest or weed control at 50 µg/cm2 [2, 4] [%]","pest or weed control at 50 µg/cm2 [1, 5] [%]","pest or weed control at 50 µg/cm2 [2, 6] [%]"
"CN(C(=O)c1cc(NC(=O)[C@H]2[C@H](c3cc(Cl)c(Cl)c(Cl)c3)C2(Cl)Cl)ccc1Cl)c1ccc(C#N)cc1F (relative stereo) [F108, trans-2-Chloro-N-(4-cyano-2-fluorophenyl)-5-(2,2-dichloro-3-(3,4,5-trichlorophenyl)cyclopropane-1-carboxamido)-N-methylbenzamide]",50 to 100,50 to 100,,
"CC(=O)Nc1ccc(NC(=O)c2cc(NC(=O)[C@H]3[C@H](c4ccc(Cl)c(Cl)c4)C3(Cl)Cl)ccc2Cl)c(F)c1 (relative stereo) [PF41, trans-N-(4-Acetamido-2-fluorophenyl)-2-chloro-5-(2,2-dichloro-3-(3,4-dichlorophenyl)cyclopropane-1-carboxamido)benzamide]",,,50 to 100,50 to 100
"Cc1cc(NC(=O)OC(C)(C)C)ccc1NC(=O)c1cc(NC(=O)[C@H]2[C@H](c3cc(Cl)c(Cl)c(Cl)c3)C2(Cl)Cl)ccc1Cl [F278, tert-Butyl (4-(2-chloro-5-((1R,3R)-2,2-dichloro-3-(3,4,5-trichlorophenyl)cyclopropane-1-carboxamido)benzamido)-3-methylphenyl)carbamate]",50 to 100,50 to 100,,
"COc1c(Cl)cc([C@H]2[C@H](C(=O)Nc3ccc(Cl)c(C(=O)Nc4ccc(F)cc4)c3)C2(Cl)Cl)cc1Cl (relative stereo) [PF156, trans-2-Chloro-5-(2,2-dichloro-3-(3,5-dichloro-4-methoxyphenyl)cyclopropane-1-carboxamido)-N-(4-fluorophenyl)benzamide]",,,50 to 100,50 to 100
"CNc1ccc(NC(=O)c2cc(NC(=O)[C@H]3[C@H](c4cc(Cl)c(OC)c(Cl)c4)C3(Cl)Cl)ccc2Cl)cc1 (relative stereo) [F182, trans-2-Chloro-5-(2,2-dichloro-3-(3,5-dichloro-4-methoxyphenyl)cyclopropane-1-carboxamido)-N-(4-(methylamino)phenyl)benzamide]",50 to 100,50 to 100,,
"O=C(Nc1ccc(-c2ncco2)cc1)c1cc(NC(=O)[C@H]2[C@H](c3cc(Cl)cc(Cl)c3)C2(Cl)Cl)ccc1Cl (relative stereo) [F446, trans-2-Chloro-5-(2,2-dichloro-3-(3,5-dichlorophenyl)cyclopropane-1-carboxamido)-N-(4-(oxazol-2-yl)phenyl)benzamide]",,,50 to 100,50 to 100
"CC(C)(C)OC(=O)Nc1cccc(NC(=O)c2cc(NC(=O)[C@H]3[C@H](c4cc(Cl)cc(Cl)c4)C3(Cl)Cl)ccc2Cl)n1 (relative stereo) [F505, tert-Butyl (6-(2-chloro-5-(trans-2,2-dichloro-3-(3,5-dichlorophenyl)cyclopropane-1-carboxamido)benzamido)pyridin-2-yl)carbamate]",,,50 to 100,50 to 100
"N#Cc1ccc(NC(=O)c2cc(NC(=O)[C@H]3[C@H](c4cc(Cl)c(Cl)c(Cl)c4)C3(Cl)Cl)ccc2Cl)c(F)c1 (relative stereo) [F104, trans-2-Chloro-N-(4-cyano-2-fluorophenyl)-5-(2,2-dichloro-3-(3,4,5-trichlorophenyl)cyclopropane-1-carboxamido)benzamide]",50 to 100,50 to 100,,
"O=C(Nc1ccc(F)cc1)c1cc(NC(=O)[C@H]2[C@H](c3ccccc3)C2(Cl)Cl)ccc1Cl (relative stereo) [F109, trans-2-Chloro-5-(2,2-dichloro-3-phenylcyclopropane-1-carboxamido)-N-(4-fluorophenyl)benzamide]",50 to 100,50 to 100,,
"CC(C)(C)OC(=O)N(C(=O)OC(C)(C)C)c1c(F)ccc(NC(=O)c2cc(NC(=O)[C@H]3[C@H](c4ccc(F)c(Cl)c4)C3(Cl)Cl)ccc2Cl)c1F [F503, tert-Butyl-N-((tert-butoxy)carbonyl)-N-(3-(2-chloro-5-((1R,3R)-2,2-dichloro-3-(3-chloro-4-fluorophenyl)cyclopropane-1-carboxamido)benzamido)-2,6-difluorophenyl)carbamate]",,,50 to 100,50 to 100
"CC(C)(C)OC(=O)N(C(=O)OC(C)(C)C)c1cc(NC(=O)c2cc(NC(=O)[C@H]3[C@H](c4ccc(Cl)c(Cl)c4)C3(Cl)Cl)ccc2Cl)c(F)cc1F [F520, tert-Butyl-N-((tert-butoxy)carbonyl)-N-(5-(2-chloro-5-((1R,3R)-2,2-dichloro-3-(3,4-dichlorophenyl)cyclopropane-1-carboxamido)benzamido)-2,4-difluorophenyl)carbamate]",,,50 to 100,50 to 100
"Nc1ccc([C@H]2[C@H](C(=O)Nc3ccc(Cl)c(C(=O)Nc4ccc(F)cc4)c3)C2(Cl)Cl)cc1 (relative stereo) [F425, 5-(trans-3-(4-aminophenyl)-2,2-dichlorocyclopropane-1-carboxamido)-2-chloro-N-(4-fluorophenyl)benzamide]",,,50 to 100,50 to 100
"CN(C(=O)c1cc(NC(=O)[C@H]2[C@H](c3ccccc3)C2(Cl)Cl)ccc1Cl)c1ccc(F)cc1 (relative stereo) [F110, trans-2-Chloro-5-(2,2-dichloro-3-phenylcyclopropane-1-carboxamido)-N-(4-fluorophenyl)-N-methylbenzamide]",50 to 100,50 to 100,,
"Cc1ccc(C(=O)Nc2ccc(F)cc2)cc1NC(=O)[C@H]1[C@H](c2cc(Cl)cc(Cl)c2)C1(Cl)Cl (relative stereo) [F134, trans-3-(2,2-Dichloro-3-(3,5-dichlorophenyl)cyclopropane-1-carboxamido)-N-(4-fluorophenyl)-4-methylbenzamide]",50 to 100,50 to 100,,
"Cc1c(Cl)cc([C@H]2[C@H](C(=O)Nc3ccc(Cl)c(C(=O)Nc4c(F)cccc4F)c3)C2(Cl)Cl)cc1Cl (relative stereo) [F121, trans-2-Chloro-5-(2,2-dichloro-3-(3,5-dichloro-4-methylphenyl)cyclopropane-1-carboxamido)-N-(2,6-difluorophenyl)benzamide]",50 to 100,50 to 100,,
"Nc1c(F)ccc(NC(=O)c2cc(NC(=O)C3C(c4cc(Cl)c(Cl)c(Br)c4)C3(Cl)Cl)ccc2Cl)c1F (stereo not drawn) [F621, N-(3-Amino-2,4-difluorophenyl)-5-(3-trans-(3-bromo-4,5-dichlorophenyl)-2,2-dichlorocyclopropane-1-carboxamido)-2-chlorobenzamide]",,,50 to 100,50 to 100
"Cc1c(Cl)cc([C@H]2[C@H](C(=O)Nc3ccc(Cl)c(C(=O)N(C)c4ccc(F)cc4)c3)C2(Cl)Cl)cc1Cl (relative stereo) [F120, trans-2-Chloro-5-(2,2-dichloro-3-(3,5-dichloro-4-methylphenyl)cyclopropane-1-carboxamido)-N-(4-fluorophenyl)-N-methylbenzamide]",50 to 100,50 to 100,,
"O=C(Nc1ccc2c(c1)C(=O)NC2=O)c1cc(NC(=O)[C@H]2[C@H](c3cc(Cl)cc(Cl)c3)C2(Cl)Cl)ccc1Cl (relative stereo) [F439, trans-2-Chloro-5-(2,2-dichloro-3-(3,5-dichlorophenyl)cyclopropane-1-carboxamido)-N-(1,3-dioxoisoindolin-5-yl)benzamide]",,,50 to 100,50 to 100
"Cc1cc(NS(C)(=O)=O)ccc1NC(=O)c1cc(NC(=O)C2C(c3cc(Cl)cc(Cl)c3)C2(Cl)Cl)ccc1Cl (stereo not drawn) [F487, 2-chloro-5-(trans)-2,2-dichloro-3-(3,5-dichlorophenyl)cyclopropane-1-carboxamido)-N-(2-methyl-4-(methylsulfonamido)phenyl)benzamide]",,,50 to 100,50 to 100
"CC(C)(C)OC(=O)N(C(=O)OC(C)(C)C)c1cc(NC(=O)c2cc(NC(=O)[C@H]3[C@H](c4cc(Cl)cc(Cl)c4)C3(Cl)Cl)ccc2Cl)c(F)cc1F [F519, tert-Butyl-N-((tert-butoxy)carbonyl)-N-(5-(2-chloro-5-((1R,3R)-2,2-dichloro-3-(3,5-dichlorophenyl)cyclopropane-1-carboxamido)benzamido)-2,4-difluorophenyl)carbamate]",,,50 to 100,50 to 100
"O=C(Nc1nc2ccc(F)cc2[nH]1)c1cc(NC(=O)C2C(c3cc(Cl)cc(Cl)c3)C2(Cl)Cl)ccc1Cl (stereo not drawn) [F451, 2-Chloro-5-(trans)-2,2-dichloro-3-(3,5-dichlorophenyl)cyclopropane-1-carboxamido)-N-(6-fluoro-1H-benzo[d]imidazol-2-yl)benzamide]",,,50 to 100,50 to 100
"Cc1c(F)ccc(NC(=O)c2cc(NC(=O)[C@H]3[C@H](c4cc(Cl)cc(Cl)c4)C3(Cl)Cl)ccc2Cl)c1F (relative stereo) [PF55, trans-2-Chloro-5-(2,2-dichloro-3-(3,5-dichlorophenyl)cyclopropane-1-carboxamido)-N-(2,4-difluoro-3-methylphenyl)benzamide]",,,50 to 100,50 to 100
"CN(C(=O)OC(C)(C)C)c1ccc(NC(=O)c2cc(NC(=O)[C@H]3[C@H](c4cc(Cl)cc(Cl)c4)C3(Cl)Cl)ccc2Cl)cc1 (relative stereo) [PF12, trans-tert-Butyl-(4-(2-chloro-5-(2,2-dichloro-3-(3,5-dichlorophenyl)cyclopropane-1-carboxamido)benzamido)phenyl)(methyl)carbamate]",,,50 to 100,50 to 100
